In patent publication US7498023B2, “Blockade of T cell migration into epithelial GVHD target tissues as an approach to achieving anti-tumor effects against lymphohematopoietic malignancies without GVHD” (The General Hospital Corporation, priority 2000, dated 2009):

Legend:
[1] = Cy 50 mg/kg daily x4 with ATG, thymic irradiation, BMT; five subjects
Description: Intravenous cyclosporine (CYA) was given beginning on day −1 with conversion to p.o. CYA when tolerated. Donor leukocytes (DLI) were given on days +35, (10^7/kg CD3+ cells) and +56 (5×10^7/kg CD3+ cells) if no GVHD was present. Median subject age was 30 (range 20-45) years. All subjects had disease progression during salvage chemotherapy or radiation therapy. […] Chimerism analyses of weekly peripheral blood samples and pre-BMT, day +28, and day +100 bone marrow aspirate samples have been performed by variable number of tandem repeat sequence (VNTR) analysis (HLA matched BMT) or flow cytometry (HLA mismatched BMT).

[2] = cited from earlier work

In the case of O=P1(N(CCCl)CCCl)NCCCO1 (centres unmarked) [cyclophosphamide], the toxicities observed [1] is listed as “reversible Cy cardiotoxicity (n=1)”, the “subjects developing a diffuse maculopapular rash” value ([2]; 24-72 hours following cyclophosphamide) is listed as 10-20% and the “subjects with some hematuria” value ([2]; at this dose level (50 mg/kg x4)) is listed as “Approximately 50%”. The “incidence of hemorrhagic cystitis” value ([2]; cyclophosphamide 50 mg/kg on days -6, -5, -4, -3) was 20% and the “total dose at which fatal cardiac failure due to hemorrhagic necrosis occurs” value ([2]; total dose (7.6 grams/m^2)) was ≥ 200 mg/kg.
